Test results as given in patent publication US20050176784A1, “Malononitrile compounds and their use as pesticides” (priority 2002, published 2005).

Legend:
Type in all cases: in vivo
Musca domestics = assay: Test Example 3: filter paper with sucrose bait, Musca domestica imagoes; conditions: 0.7 ml on filter paper, ten female imagoes, after 24 hours, read-out: rate of dead pests
Experimental: The formulation obtained according to Formulation Example 5 using the present invention compounds (1), (2), (4), (8), (9), (10), (11), (13), (14) and (15) respectively, was diluted with water so that the active ingredient concentration came to 500 ppm to prepare a pesticidal solution for test.
(§1) On the bottom of a polyethylene cup having a diameter of 5.5 cm, a filter paper having the same diameter was laid, and 0.7 ml of the above pesticidal solution for test was added dropwise on the filter paper, followed by putting 30 mg of sucrose on it uniformly as a bait. Ten female Musca domestics imagoes were set free in the polyethylene cup and covered it with a lid. After 24 hours, the number of surviving Musca domestics was examined and the rate of dead pests was calculated.

Culex pipiens pallens = assay: Test Example 5: larvae in treated water, Culex pipiens pallens; conditions: 24 h, active ingredient concentration 3.5 ppm in water, twenty last-instar larvae, after one day, read-out: rate of dead pests
Experimental: The formulation obtained according to Formulation Example 5 using the present invention compounds (3), (4), (8), (9), (10), (11), (12), (13), (14) and (15) respectively, was diluted with water so that the active ingredient concentration came to 500 ppm to prepare a pesticidal solution for test. 0.7 ml of above pesticidal solution for test was added to 100 ml of ion exchanged water (active ingredient concentration: 3.5 ppm). Twenty last-instar larvae of Culex pipiens pallens were set free in the solution. After one day, the number of surviving Culex pipiens pallens was examined and the rate of dead pests was calculated.

Blattella germanica = assay: Test Example 4: filter paper with sucrose bait, Blattella germanica imagoes; conditions: 144 h, 0.7 ml on filter paper, two male imagoes, after 6 days, read-out: rate of dead pests
Experimental: The formulation obtained according to Formulation Example 5 using the present invention compounds (1), (4), (8), (9), (11), (12), (13) and (14) respectively, was diluted with water so that the active ingredient concentration came to 500 ppm to prepare a pesticidal solution for test.
as §1, with “Two male Blattella germanica” for “Ten female Musca domestics”, “6 days,” for “24 hours,”, “Blattella germanica” for “Musca domestics”

SMILES | pest or weed control at 500 ppm (Musca domestics) | pest or weed control at 3.5 ppm (Culex pipiens pallens) | pest or weed control at 500 ppm (Blattella germanica)
C=CCC(C#N)(C#N)C(C#N)c1ccc(Cl)nc1 (stereo not shown) [Compound 2, 1-(6-Chloro-3-pyridyl)-1,2,2-tricyano-4-pentene] | ≥ 90% | – | –
N#Cc1ccc(CC(C#N)(C#N)CCC(F)(F)F)cn1 [Compound 12, 2-((6-cyano-3-pyridyl)methyl)-2-(3,3,3-trifluoropropyl)malononitrile] | – | 100% | 100%
N#CC(C#N)(CCC(F)(F)F)Cc1cccc(Cl)n1 [Compound 8, 2-((6-chloro-2-pyridyl)methyl)-2-(3,3,3-trifluoropropyl)malononitrile] | ≥ 90% | 100% | 100%
N#CC(C#N)(CCC(F)(F)F)Cc1cnc(Cl)c(Cl)c1 [Compound 15, 2-((5,6-dichloro-3-pyridyl)methyl)-2-(3,3,3-trifluoropropyl)malononitrile] | ≥ 90% | 100% | –
N#CC(C#N)(CCC(F)(F)F)Cc1ccc(Br)nc1 [Compound 10, 2-((6-bromo-3-pyridyl)methyl)-2-(3,3,3-trifluoropropyl)malononitrile] | ≥ 90% | 100% | –
N#CC(C#N)(CCC(F)(F)F)Cc1cccc(Br)n1 [Compound 14, 2-((6-bromo-2-pyridyl)methyl)-2-(3,3,3-trifluoropropyl)malononitrile] | ≥ 90% | 100% | 100%
C=CCC(C#N)(C#N)Cc1ccc(Cl)nc1 [Compound 1, 2-allyl-2-((6-Chloro-3-pyridyl)methyl)malononitrile] | ≥ 90% | – | 100%
N#CC(C#N)(CCC(F)=C(F)F)Cc1ccc(Cl)nc1 [Compound 3, 2-((6-Chloro-3-pyridyl)methyl)-2-(3,4,4-trifluoro-3-butenyl)malononitrile] | – | 100% | –
N#CC(C#N)(CCC(F)(F)F)Cc1ccc(C(F)(F)F)nc1 [Compound 9, 2-((6-(trifluoromethyl)-3-pyridyl)methyl)-2-(3,3,3-trifluoropropyl)malononitrile] | ≥ 90% | 100% | 100%
C#Cc1ccc(CC(C#N)(C#N)CCC(F)(F)F)cn1 [Compound 11, 2-((6-ethynyl-3-pyridyl)methyl)-2-(3,3,3-trifluoropropyl)malononitrile] | ≥ 90% | 100% | 100%
N#CC(C#N)(CCC(F)(F)F)Cc1ccc(Cl)nc1 [Compound 4, 2-((6-Chloro-3-pyridyl)methyl)-2-(3,3,3-trifluoropropyl)malononitrile] | ≥ 90% | 100% | 100%
N#CC(C#N)(CCC(F)(F)F)Cc1ccc(F)nc1 [Compound 13, 2-((6-fluoro-3-pyridyl)methyl)-2-(3,3,3-trifluoropropyl)malononitrile] | ≥ 90% | 100% | 100%
